Measurements from PubChem BioAssay (NCI).
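Each compound was tested at five concentrations against cells in 96-well plates for 48 hours. Definition used: TGI = concentration required for complete inhibition of growth.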

Columns and labels:
Test in all cases: NCI tumour cell line growth inhibition, 48 h
[1] = system: SF-268 CNS
[2] = system: NCI-H23 lung
[3] = system: HCT-116 colon
[4] = system: DMS 273 small cell lung
[5] = system: LOX IMVI melanoma
[6] = system: P388 leukemia
[7] = system: NCI-H460 lung
[8] = system: SNB-19 CNS
[9] = system: SNB-78 CNS
[10] = system: MOLT-4 leukemia
[11] = system: CCRF-CEM leukemia
[12] = system: SNB-75 CNS
[13] = system: RPMI-8226 leukemia
[14] = system: SF-539 CNS
[15] = system: A549 NSCLC
[16] = system: KM20L2 colon
[17] = system: OVCAR-5 ovarian
[18] = system: SK-MEL-28 melanoma
[19] = system: U251 CNS
[20] = system: UACC-62 melanoma
[21] = system: OVCAR-8 ovarian
[22] = system: HCC-2998 colon
[23] = system: SF-295 CNS
[24] = system: SN12C renal
[25] = system: MALME-3M melanoma
[26] = system: K-562 leukemia
[27] = system: MCF7 breast
[28] = system: KM12 colon
[29] = system: SN12K1 renal
[30] = system: IGROV1 ovarian
[31] = system: OVCAR-3 ovarian
[32] = system: HOP-62 NSCLC
[33] = system: CAKI-1 renal
[34] = system: RXF 393 renal
[35] = system: SK-MEL-5 melanoma
[36] = system: UACC-257 melanoma
[37] = system: HT29 colon
[38] = system: HOP-18 NSCLC
[39] = system: A498 renal
[40] = system: HOP-92 NSCLC
[41] = system: UO-31 renal
[42] = system: SW-620 colon
[43] = system: DLD-1 colon
[44] = system: M19-MEL melanoma
[45] = system: COLO 205 colon
[46] = system: P388/ADR leukemia
[47] = system: HL-60(TB) leukemia
[48] = system: NCI/ADR-RES ovarian
[49] = system: XF 498 CNS
[50] = system: OVCAR-4 ovarian
[51] = system: EKVX NSCLC
[52] = system: HCT-15 colon
[53] = system: SK-MEL-2 melanoma
[54] = system: SK-OV-3 ovarian
[55] = system: NCI-H522 lung
[56] = system: NCI-H226 lung
[57] = system: 786-0 renal
[58] = system: RXF-631 renal
[59] = system: TK-10 renal
[60] = system: LXFL 529 NSCLC
[61] = system: M14 melanoma
[62] = system: ACHN renal
[63] = system: SR leukemia
[64] = system: DMS 114 small cell lung

With CCOC(=O)CCc1c(C)c2c(O)cc(O)cc2oc1=O the TGI [1] was greater than 100 µM, the TGI [2] was greater than 100 µM and the TGI [3] was greater than 100 µM. The TGI [4] was greater than 100 µM, the TGI [5] was greater than 100 µM and the TGI [6] was greater than 100000 nM. For the same compound, the TGI [7] was greater than 100000 nM, the TGI [8] was greater than 100 µM and the TGI [9] was greater than 100 µM. The TGI [10] was greater than 100 µM, the TGI [11] was greater than 100 µM and the TGI [12] was greater than 100 µM. For the same compound, the TGI [13] was greater than 100000 nM, the TGI [14] was greater than 100 µM and the TGI [15] was greater than 100 µM. For the same compound, the TGI [16] was greater than 100 µM, the TGI [17] was greater than 100 µM and the TGI [18] was greater than 100 µM. For the same compound, the TGI [19] was greater than 100 µM, the TGI [20] was greater than 100 µM and the TGI [21] was greater than 100 µM. It also gave a TGI [22] greater than 100 µM, a TGI [23] greater than 100 µM and a TGI [24] greater than 100 µM. The TGI [25] was greater than 100 µM, the TGI [26] was greater than 100 µM and the TGI [27] was greater than 100000 nM. For the same compound, the TGI [28] was greater than 100 µM, the TGI [29] was greater than 100000 nM and the TGI [30] was greater than 100 µM. For the same compound, the TGI [31] was greater than 100 µM, the TGI [32] was greater than 100 µM and the TGI [33] was greater than 100 µM. It also gave a TGI [34] greater than 100 µM, a TGI [35] greater than 100 µM and a TGI [36] greater than 100 µM. It also gave a TGI [37] greater than 100 µM, a TGI [38] greater than 100 µM and a TGI [39] greater than 100 µM. It also gave a TGI [40] greater than 100 µM, a TGI [41] greater than 100 µM and a TGI [42] greater than 100 µM. The TGI [43] was greater than 100 µM, the TGI [44] was greater than 100 µM and the TGI [45] was greater than 100 µM. It also gave a TGI [46] greater than 100 µM, a TGI [47] greater than 100 µM and a TGI [48] greater than 100 µM. For the same compound, the TGI [49] was greater than 100 µM, the TGI [50] was greater than 100 µM and the TGI [51] was greater than 100 µM. It also gave a TGI [52] greater than 100000 nM, a TGI [53] greater than 100 µM and a TGI [54] greater than 100 µM. The TGI [55] was greater than 100 µM and the TGI [56] was greater than 100 µM.

For C[C@@]1(CBr)C[C@@](C)(/C=C/Cl)[C@@H](Cl)C[C@H]1Cl, the TGI [1] was 30.1 µM, the TGI [2] was 27.9 µM and the TGI [3] was 21.2 µM. For the same compound, the TGI [4] was 22.8 µM, the TGI [5] was 23.7 µM and the TGI [57] was 27 µM. For the same compound, the TGI [8] was 27.1 µM, the TGI [9] was 14 µM and the TGI [58] was 24.2 µM. The TGI [10] was 19.4 µM, the TGI [59] was 28.7 µM and the TGI [11] was 19.8 µM. For the same compound, the TGI [12] was 30.5 µM, the TGI [14] was 27.9 µM and the TGI [15] was 26.1 µM. The TGI [16] was 24.6 µM, the TGI [17] was 26.3 µM and the TGI [60] was 21.7 µM. For the same compound, the TGI [61] was 29 µM, the TGI [18] was 31.3 µM and the TGI [19] was 27.9 µM. For the same compound, the TGI [20] was 29.1 µM, the TGI [21] was 29.9 µM and the TGI [22] was 29.8 µM. The TGI [23] was 26.8 µM, the TGI [24] was 24.4 µM and the TGI [25] was 30.4 µM. It also gave a TGI [26] of 25.3 µM, a TGI [28] of 22.5 µM and a TGI [30] of 29 µM. The TGI [31] was 22.8 µM, the TGI [32] was 27.5 µM and the TGI [33] was 31.7 µM. It also gave a TGI [34] of 27.9 µM, a TGI [35] of 26.1 µM and a TGI [36] of 24.2 µM. It also gave a TGI [37] of 22.4 µM, a TGI [38] of 26.4 µM and a TGI [62] of 25.7 µM. The TGI [39] was 30.8 µM, the TGI [40] was 27.7 µM and the TGI [41] was 29.1 µM. The TGI [42] was 27.8 µM, the TGI [43] was 27.3 µM and the TGI [44] was 25.9 µM. It also gave a TGI [45] of 28.1 µM, a TGI [47] of 8.6 µM and a TGI [49] of 24.5 µM. The TGI [50] was 24.6 µM, the TGI [51] was 33 µM and the TGI [63] was 16.9 µM. It also gave a TGI [53] of 8.46 µM, a TGI [54] of 29.9 µM and a TGI [64] of 25.3 µM. The TGI [55] was 14.5 µM and the TGI [56] was 26.1 µM.

COC(=O)C[C@](O)(CCC(C)(C)O)C(=O)O[C@@H]1C(OC)=C[C@]23CCCN2CCc2cc4c(cc2[C@H]13)OCO4 gave a TGI [1] of 0.496 µM, a TGI [2] of 0.323 µM and a TGI [3] of 0.15 µM. The TGI [4] was 0.131 µM, the TGI [5] was 0.426 µM and the TGI [6] was 133 nM. The TGI [7] was 79.3 nM, the TGI [8] was 0.28 µM and the TGI [9] was 1.04 µM. The TGI [10] was greater than 100 µM, the TGI [12] was 0.95 µM and the TGI [13] was 701 nM. For the same compound, the TGI [14] was 0.102 µM, the TGI [15] was 0.45 µM and the TGI [16] was 0.74 µM. It also gave a TGI [17] of 1.08 µM, a TGI [18] of 0.294 µM and a TGI [19] of 0.379 µM. The TGI [20] was 1.12 µM, the TGI [21] was 0.571 µM and the TGI [22] was 0.0855 µM. The TGI [23] was 0.61 µM, the TGI [24] was 1.07 µM and the TGI [25] was 0.109 µM. The TGI [26] was greater than 100 µM, the TGI [27] was 113 nM and the TGI [28] was 1.21 µM. It also gave a TGI [29] of 359 nM, a TGI [30] of 0.506 µM and a TGI [31] of 0.459 µM. The TGI [32] was 0.59 µM, the TGI [33] was 1.64 µM and the TGI [34] was 0.518 µM. The TGI [35] was 0.202 µM, the TGI [36] was 0.537 µM and the TGI [37] was 1.06 µM. It also gave a TGI [38] of 0.756 µM, a TGI [39] of 0.26 µM and a TGI [40] of 0.653 µM. For the same compound, the TGI [41] was 7.01 µM, the TGI [44] was 0.363 µM and the TGI [45] was 0.255 µM. The TGI [46] was greater than 100 µM, the TGI [47] was 0.743 µM and the TGI [48] was 59.8 µM. It also gave a TGI [50] of 0.478 µM, a TGI [51] of 0.43 µM and a TGI [52] of 2070 nM. It also gave a TGI [53] of 0.407 µM, a TGI [54] of 0.915 µM and a TGI [64] of 0.0597 µM. It also gave a TGI [55] of 0.0597 µM and a TGI [56] of 0.124 µM.
